In publication PMC12508057, “Discovery of ETI41 and ETI60: novel selective endosomal Toll-like receptor inhibitors for the treatment of autoimmune diseases” (Experimental & Molecular Medicine, 2025):
Read-outs that look alike come from different tables or passages of the source.

How the values were obtained:
[1] = test system: TLR9; experiment: FACS analysis of FAM-labeled CpG-ODN uptake and retention; format: cell-based; conditions: for Endocytosis of CpG ODNs: 30-min treatment with labeled CpG ODNs
Experimental: RAW 264.7 cells were seeded into 60-mm dishes at 2 × 10^6 cells per dish. After 30 min of treatment with ETI41 or ETI60, cells were incubated with 1 μM of 3’-FAM-labeled ODN 2395 (Bioneer Inc.) for 30 min. Fluorescence intensity was measured using a NovoCyte Flow Cytometer (Agilent Technologies) and analyzed using NovoExpress software.
Fig. 3 Binding mechanism of ETI41 and ETI60 with TLR7 and TLR9. a ETI41 and ETI60 bind to the extracellular domain of TLR7. b Detailed intermolecular interactions ofETI41 and ETI60 are shown with the key residues of TLR7. c ETI41 and ETI60 bind to the extracellular domain of TLR9. d Intermolecular interactions of ETI41 and ETI60 with the key residues of TLR9. The asterisk indicates chain A of TLR7 and TLR9. ETI41 and ETI60 are depicted in ball-and-stick models. Bonds are represented by lines, with distances measured in ångström (Å) units. […] Data presented are from three independent experiments (n = 3), and statistical differences between the induced case and other cases were analyzed and verified using a one-tailed Student’s t-test (*P < 0.05, **P < 0.01, ***P < 0.001). TEXT PRINTED IN THE PICTURE: (f) ETI41: ODN-Fm (30min): Q3-1 0.00%; ODN-Fm (30min): Q3-2 0.00%; ODN-Fm (30min): Q3-3 10.75%; ODN-Fm (30min): Q3-4 89.25%; ODN-Fm (30min) → Washing → Incubation (1h): Q3-1 0.00%; ODN-Fm (30min) → Washing → Incubation (1h): Q3-2 0.00%; ODN-Fm (30min) → Washing → Incubation (1h): Q3-3 40.96%; ODN-Fm (30min) → Washing → Incubation (1h): Q3-4 59.04% | (f) ETI60: ODN-Fm (30min): Q3-1 0.00%; ODN-Fm (30min): Q3-2 0.00%; ODN-Fm (30min): Q3-3 12.80%; ODN-Fm (30min): Q3-4 87.20%; ODN-Fm (30min) → Washing → Incubation (1h): Q3-1 0.00%; ODN-Fm (30min) → Washing → Incubation (1h): Q3-2 0.00%; ODN-Fm (30min) → Washing → Incubation (1h): Q3-3 56.37%; ODN-Fm (30min) → Washing → Incubation (1h): Q3-4 43.63% DOUBTS OF THE COPYIST ABOUT THIS PICTURE: Panel f, very small print: the digits 3, 5, 6, 8 and 9 cannot be told apart with certainty in any quadrant percentage. / ETI41, ODN-Fm (30min): Q3-3 10.75% and Q3-4 89.25% are best readings / ETI60, ODN-Fm (30min): Q3-3 12.80% and Q3-4 87.20% are best readings / ETI41, Washing/Incubation (1h): Q3-3 40.96% and Q3-4 59.04% are best readings / ETI60, Washing/Incubation (1h): Q3-3 56.37% and Q3-4 43.63% are best readings / Panel f: the control plots ('Con' and '-') also print quadrant percentages. They are left out because they are not substance results.
FACS analysis further validated the binding of ETI41 and ETI60. Unmethylated CpG ODNs, acting as ligands for TLR9, were fluorescently labeled, and their cellular penetration was monitored.

[2] = molecular target: T1, TLR9 (Mus musculus, UniProt Q9EQU3); experiment: Real-time quantitative PCR in BMDCs stimulated with ODN2395; format: cell-based; conditions: primary BMDCs, 0.2 and 1 μM, ODN2395 1 μM
T1 construct: RAW 264.7 and differentiated THP-1 cells were seeded into 96-well plates; endogenous in cells; host or cells: RAW 264.7
T1 sequence (Q9EQU3 26-1032): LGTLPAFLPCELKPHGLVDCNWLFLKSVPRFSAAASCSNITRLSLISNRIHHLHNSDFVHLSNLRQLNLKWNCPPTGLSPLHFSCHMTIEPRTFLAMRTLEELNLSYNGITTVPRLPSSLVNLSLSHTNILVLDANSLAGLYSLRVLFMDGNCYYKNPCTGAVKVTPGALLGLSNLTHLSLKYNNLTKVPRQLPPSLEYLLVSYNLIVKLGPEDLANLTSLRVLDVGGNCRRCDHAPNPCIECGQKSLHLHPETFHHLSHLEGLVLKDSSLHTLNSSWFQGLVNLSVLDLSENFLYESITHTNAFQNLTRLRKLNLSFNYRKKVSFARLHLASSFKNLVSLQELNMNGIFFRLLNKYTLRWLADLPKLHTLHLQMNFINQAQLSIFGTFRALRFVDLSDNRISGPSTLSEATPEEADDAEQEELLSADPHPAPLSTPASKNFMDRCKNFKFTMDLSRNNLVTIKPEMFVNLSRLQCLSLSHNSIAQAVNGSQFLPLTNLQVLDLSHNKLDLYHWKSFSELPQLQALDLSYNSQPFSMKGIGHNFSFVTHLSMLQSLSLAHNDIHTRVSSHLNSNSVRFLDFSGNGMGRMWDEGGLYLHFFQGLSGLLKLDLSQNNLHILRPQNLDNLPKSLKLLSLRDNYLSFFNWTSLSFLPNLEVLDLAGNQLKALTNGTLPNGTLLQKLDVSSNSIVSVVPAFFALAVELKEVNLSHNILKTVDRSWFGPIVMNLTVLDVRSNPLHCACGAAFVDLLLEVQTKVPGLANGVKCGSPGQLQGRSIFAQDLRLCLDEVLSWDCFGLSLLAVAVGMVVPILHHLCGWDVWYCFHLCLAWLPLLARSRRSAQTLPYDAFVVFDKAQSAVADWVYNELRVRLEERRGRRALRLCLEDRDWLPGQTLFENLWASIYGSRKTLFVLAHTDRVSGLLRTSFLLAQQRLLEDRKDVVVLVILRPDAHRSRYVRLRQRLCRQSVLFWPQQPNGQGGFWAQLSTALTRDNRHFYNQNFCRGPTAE
Experimental: Bone marrow cells from 8-week-old C57BL/6 mice (Jackson Laboratory) were cultured in RPMI 1640 with 20 ng/ml granulocyte-macrophage colony-stimulating factor (GM-CSF; Thermo Fisher Scientific) for 8 days. Bone marrow-derived dendritic cell (BMDC) purity was confirmed by fluorescence-activated cell sorting (FACS), showing 84% F4/80^− and CD11c^+ cells. […] Total mRNA was extracted using TRIzol reagent (Thermo Fisher Scientific) and reverse transcribed using the ReverTra Ace qPCR RT Kit (Toyobo). mRNA levels were determined using SYBR Green PCR Master Mix (Kapa Biosystems) and a CFX Connect RT-PCR System (Bio-Rad). Primers used were directed against IL-12p40, IFN-β, CD40 and GAPDH.
All experiments were independently conducted three times.

[3] = test system: endosomal TLRs; experiment: Endosomal TLR-mediated TNF-α production, summary over cell lines; format: cell-based; conditions: dose-dependent, without inducing cytotoxic effects
Experimental: RAW 264.7 and differentiated THP-1 cells were seeded into 96-well plates at 2 × 10^4 cells per well, while Daudi cells were seeded at 5 × 10^4 cells per well. After stabilization for 30 min, cells were stimulated with specific TLR agonists for 4 or 24 h. Supernatants were diluted and transferred to precoated ELISA plates to measure TNF-α secretion using kits from Invitrogen. Optical absorbance was measured using a BioTek Synergy HTX multimode microplate reader, and data were interpolated using BioTek Gen5 software.
TLR activation triggers the NF-κB pathway, resulting in increased production of pro-inflammatory cytokines, such as TNF-α and IL-6.

Row | SMILES | Endocytosis of CpG ODNs [1] | Fluorescence intensity of labeled CpG ODN after washing [1] | Production of IL-12p40, IFN-β and CD40 (mRNA) [2] | Toxicity tests (doses ranging from 150 to 300 mg/kg) | TNF-α production by RAW 264.7 and Daudi cells [3] | Toxicity tests (in vivo)
1 | Cc1cc2c(N)c3c(nc2n1CCCN(C)C)CCCCCC3 [ETI41] | did not interfere with endocytosis | reduction in fluorescence intensity | significantly inhibited | confirmed their safety | effectively inhibited | 
2 | COc1ccc2c3c(N)c4c(nc3n(CCCN(C)C)c2c1)CCCC4 [ETI60] | did not interfere with endocytosis | reduction in fluorescence intensity |  |  | effectively inhibited | confirmed their safety
